Measurements as given in patent publication EP1800684A1, “Novel alkyl phospholipid derivatives and uses thereof” (Zentaris GmbH, priority 2005, dated 2007).
≈ marks a conversion by molar mass, not a printed value. Where two headings read alike, the source gives them in different places.

Assays:
Format in all cases: cell-based
[1] = system: Candida albicans (ATCC 10231); assay: Anti-fungal susceptibility test (microdilution), fungus A
Experimental: (§1) The antifungal activities of the test compounds (compounds of the invention and known prior art compounds) were measured according to standard microdilution methods (Cryptococcus/Aspergillus: Ghannoum et al., Journal of Clinical Microbiology 1992, 30 (11): 2881-2886; Candida: Reference method for broth dilution susceptibility testing of yeast: proposed standard, NCCLS document M27-P, National Committee for Clinical Laboratory Standards 1992, Villanova, Pa).
(§2) A serial dilution series starting from 64 µg/mL test compound per well down to 0.125 µg/mL test compound per well was applied for each test compound on each fungus. The MIC of each compound was defined as the concentration which produces no visible growth after 48 hours (Candida) and 72 hours (Cryptococcus, Aspergillus) of culture at 35° C.
(§3) The following fungi were assessed: • A) Candida albicans (ATCC 10231) • B) Candida albicans (ATCC 90028) • C) Candida albicans (strain TS3, Shrikantha et al., Journal of Bacteriology 2000, 182(6):1580-1591) • D) Candida parapsilosis (ATCC 22019) • E) Cryptocoocus neoformans (ATCC 90112) • F) Cryptocoocus neoformans (strain H99; Ganendren et al., Antimicrobial Agents and Chemotherapy, 2004, 48(5):1561-1569) • G) Cryptocoocus gattii (ATCC 32608) • H) Aspergillus fumigatus (ATCC 204305) • I) Aspergillus fumigatus (strain 322-384)

[2] = system: Candida parapsilosis (ATCC 22019); assay: Anti-fungal susceptibility test (microdilution), fungus D
Experimental: as §1, §2, §3

[3] = system: Candida albicans (ATCC 90028); assay: Anti-fungal susceptibility test (microdilution), fungus B
Experimental: as §1, §2, §3

[4] = system: Aspergillus fumigatus (strain 322-384); assay: Anti-fungal susceptibility test (microdilution), fungus I; conditions: no visible growth after 72 hours at 35° C
Experimental: as §1, §2, §3

[5] = system: Candida albicans (strain TS3); assay: Anti-fungal susceptibility test (microdilution), fungus C; conditions: no visible growth after 48 hours at 35° C
Experimental: as §1, §2, §3

[6] = system: Aspergillus fumigatus (ATCC 204305); assay: Anti-fungal susceptibility test (microdilution), fungus H
Experimental: as §1, §2, §3

[7] = system: KB/HeLa (ATCC CCL17, human cervix carcinoma); assay: XTT cytotoxicity assay, KB/HeLa cells; conditions: 48 h, 2 days of continuous drug exposure
Experimental: (§4) Human tumor cell lines KB/HeLa (ATCC CCL17, human cervix carcinoma), PC3 (ATCC CRL1435, human prostate carcinoma) and RKOp21 (human colon adenocarcinoma) cells were used in an automated XTT screening assay for the assessment of cytotoxicity.
(§5) The XTT assay quantifies cellular metabolic activity which correlates with cell viability and cell number. Test compounds (selected compounds of the invention and known substances as controls) are dissolved in culture medium at 600µM and added to the tumor cells in 10 different concentrations in a semi-logarithmic fashion starting from 100 µM as highest concentration.
(§6) 48h later cellular metabolic activity of cells treated with test compounds is quantified by measurement of the absorbance at 490nm (conversion of XTT dye) in comparison to untreated control cells (100% viability).
(§7) KB/HeLa and PC3 cells were cultivated in RPMI medium supplemented with 10% heat inactivated fetal calf serum, 2 mM glutamine, 100 U/ml penicillin, and 100 µg/ml streptomycin. RKOp21 cells were grown in DMEM supplemented with 10% heat inactivated fetal calf serum, 2 mM glutamine, 100 U/ml penicillin, and 100 µg/ml streptomycin. All cells were cultured at 37°C in 5% CO2 humidified air.
(§8) On the first day of the experiment cells were harvested from exponential phase cultures by trypsination, counted and plated into 96 well flat-bottom micro titer plates depending on the cell line as listed below:
(§9) After a 24h recovery to allow the cells to resume exponential growth, the test compounds were diluted immediately prior to use and transferred in 25µl volume to the wells.
(§10) Following 2 days of continuous drug exposure 50µl of freshly prepared XTT-PMS solution (2% […] PMS in PBS + 98% 1 mg/ml XTT in RPMI 1640 without phenol red) was added to the wells. To measure the proportion of living cells, the cells were incubated for 3 h with XTT-PMS reagent at 37°C, 5% CO2, humidified atmosphere allowing to form the formazan salt. The amount of soluble formazan salt produced by cellular reduction of XTT is quantified by measuring the absorbance at 490nm using the Biomek® 2000 ELISA plate reader.
(§11) %-inhibition (cytotoxicity) of each test compound was calculated in relation to untreated control cells. Inhibition curves were generated and IC50 values calculated by using GraphPad Prism.

[8] = system: RKOp21 (human colon adenocarcinoma) cells; assay: XTT cytotoxicity assay, RKOp21 cells; conditions: 48 h, 2 days of continuous drug exposure
Experimental: as §4, §5, §6, §7, §8, §9, §10, §11

[9] = system: PC3 (ATCC CRL1435, human prostate carcinoma); assay: XTT cytotoxicity assay, PC3 cells; conditions: PC-3, 48 h, 2 days of continuous drug exposure
Experimental: as §4, §5, §6, §7, §8, §9, §10, §11

[10] = system: Plasmodium falciparum (strain 3D7); assay: In vitro drug susceptibility assay, protozoon D (3[H]-hypoxanthine method)
Experimental: (§12) Plasmodium falciparum strain K1 and strain 3D7 parasites were cultured according to Trager W and Jensen JB (Science 1976, 193: 673-675). In vitro drug susceptibility assays with the test compounds were carried out according to Korsinczky M et al. (Antimicrobial agents and chemotherapy 2000, 44(8): 2100-2108) and Fivelman QL et al. (Antimicrobial agents and chemotherapy 2004, 48(11): 4097-4102) using a ^3[H]-hypoxanthine radioisotope method. ED50 values were calculated with Msxlfit (IDBS).
(§13) The following protozoa were assessed: • A) Trypanosoma cruzi (Tulahuan-LACZ amstigotes in PEM, Lorente SO et al., Antimicrobial agents and chemotherapy 2004, 48(8): 2937-2950; Buckner et al., Infection and Immunity 1999, 67(1): 403-409; Buckner et al., Antimicrobial Agents and Chemotherapy 1996, 40(11): 2592-2597) • B) Trypanosoma brucei rhodesiense (strain STIB900, Lorente SO et al., Antimicrobial agents and chemotherapy 2004, 48(8): 2937-2950; Habtemariam S, BMC Pharmacology 2003, 3:6) • C) Plasmodium falciparum (strain K1, Korsinczky M et al., Antimicrobial agents and chemotherapy 2000, 44(8): 2100-2108; Thaitong S and Beale GH, Trans. R. Soc. Trop. Med. Hyg. 1981, 75: 271-273; Trager W and Jensen JB, Science 1976, 193: 673-675) • D) Plasmodium falciparum (strain 3D7, Mu et al., PLoS Biology 2005, 3(10): e335)

[11] = system: Cryptocoocus neoformans (ATCC 90112); assay: Anti-fungal susceptibility test (microdilution), fungus E
Experimental: as §1, §2, §3

[12] = system: Trypanosoma cruzi (Tulahuan-LACZ amstigotes in PEM); assay: In vitro drug activity assay, protozoon A (amastigotes in murine peritoneal macrophages, CPRG readout); conditions: infected macrophages exposed for 3 days
Experimental: Murine (CD1) peritoneal macrophages were harvested 24 hours after starch induction and dispensed into 96-well plates at a concentration of 4 x 10^5 mL. After 24 hours, the cells were infected with Trypanosoma cruzi Tulahuan LAC-Z amastigotes (grown and cultured according to Buckner et al., Infection and Immunity 1999, 67(1): 403-409). 24 hours later, the infected cells were exposed to the test compounds (compounds of the invention as well as known prior art compounds) for 3 days and 50 µL of 500 µM CPRG-1% Nonidet P-40 was added to each well. The plates were read after 2 to 5 hours at 570 nm (Buckner et al., Antimicrobial Agents and Chemotherapy 1996, 40(11): 2592-2597). ED50 values were calculated with Msxlfit (IDBS).
as §13

[13] = system: Plasmodium falciparum (strain K1); assay: In vitro drug susceptibility assay, protozoon C (3[H]-hypoxanthine method)
Experimental: as §12, §13

[14] = system: Cryptocoocus gattii (ATCC 32608); assay: Anti-fungal susceptibility test (microdilution), fungus G
Experimental: as §1, §2, §3

[15] = system: Cryptocoocus neoformans (strain H99); assay: Anti-fungal susceptibility test (microdilution), fungus F
Experimental: as §1, §2, §3

[16] = system: Trypanosoma brucei rhodesiense (strain STIB900); assay: In vitro drug activity assay, protozoon B (bloodstream form trypomastigotes, Alamar Blue); conditions: incubated for 72 hours
Experimental: Trypanosoma brucei rhodesiense STIB900 bloodstream form trypomastigotes were maintained in HMI-18 medium (Hirumi H, Hirumi K, J Parasitol. 1989, 75(6):985-989) with 15% heat-inactivated fetal calf serum at 37°C, 5% CO2, humidified atmosphere. Trypomastigotes were washed and resuspended in fresh medium at a concentration of 2 x 10^5 mL. Test compounds were given to the trypomastigotes and plates were incubated for 72 hours at 37°C, 5% CO2, humidified atmosphere. At 72 hours the plates were assessed microscopically before Alamar Blue was added (Raz et al., Acta Trop. 1997, 68: 139-147). Plates were read after 5 to 6 hours at EX/EM 530/585 nm with a filter cutoff at 550 nm. ED50 values were calculated with Msxlfit (IDBS).
as §13

[17] = no visible growth after 48 hours at 35° C
[18] = Candida albicans, ATCC10231, no visible growth after 48 hours at 35° C, read-out: MIC
[19] = ATCC22019, no visible growth after 48 hours at 35° C, read-out: MIC
[20] = Candida albicans, ATCC90028, no visible growth after 48 hours at 35° C, read-out: MIC
[21] = Aspergillus fumigatus, read-out: MIC
[22] = Candida albicans, read-out: MIC
[23] = Aspergillus fumigatus, ATCC204305, no visible growth after 72 hours at 35° C, read-out: MIC

SMILES	IC50 [7] [µM]	IC50 [8] [µM]	IC50 [9] [µM]	MIC [1, 18] [µg/mL]	MIC [2, 19] [µg/mL]	MIC [3, 20] [µg/mL]	MIC [4, 21] [µg/mL]	MIC [5, 22] [µg/mL]	MIC [6, 23] [µg/mL]	further results
CCCCCCCCCCCCCCCCCCOP(=O)([O-])OCC[As+](C)(C)C [Compound 22]	–	–	–	–	–	–	–	–	–	MIC [1, 17]: 0.5 µg/mL; MIC [2, 17]: 1 µg/mL; MIC [3, 17]: 1 µg/mL; MIC [4]: 2 µg/mL; MIC [5]: 1 µg/mL; MIC ([6]; no visible growth after 72 hours at 35° C): 4 µg/mL
CCCCCCCC/C=C\CCCCCCCCOP(=O)(O)OCCN1CCCCC1 [Compound 19, Phosphoric acid (Z)-octadec-9-enyl ester 2-piperidin-1-yl-ethyl ester]	> 100	> 100	> 100	–	–	–	–	–	–	–
CCCCCCCCCCOCCOCCOP(=O)([O-])OCC[N+]1(C)CCCCC1 [Compound 20, Phosphoric acid 2-(2-decyloxy-ethoxy)-ethyl ester 2-(1-methylpiperidin-1-yl)-ethyl ester]	> 100	> 100	> 100	–	–	–	–	–	–	–
CCCCCCCCCCCCCCCCOP(=O)([O-])OCC[N+]12CCC(CC1)CC2 [Compound 3, Phosphoric acid 2-(1-aza-bicyclo[2.2.2]oct-1-yl)-ethyl ester hexadecyl ester]	–	–	–	1 (≈ 2.18 µM)	2 (≈ 4.35 µM)	1 (≈ 2.18 µM)	2 (≈ 4.35 µM)	2 (≈ 4.35 µM)	3 (≈ 6.53 µM)	ED50 (µg/mL) [10]: 2,25 µg/mL; MIC ([11]; 72 h): 1.5 µg/mL (≈ 3.26 µM); ED50 (µg/mL) [12]: 0,33 µg/mL; ED50 (µg/mL) [13]: 8,03 µg/mL; MIC ([14]; 72 h): 0.75 µg/mL (≈ 1.63 µM); MIC ([15]; 72 h): 1 µg/mL (≈ 2.18 µM); ED50 (µg/mL) [16]: 25,03 µg/mL
CCCCCCCCCCCCCCCCOCCCOP(=O)([O-])OCC[N+](C)(C)C [Compound 8, Phosphoric acid 3-hexadecyloxy-propyl ester 2-trimethylammonium-ethyl ester]	–	–	–	0.75	0.75	0.75	2	1	2	MIC ([11]; fungus E, no visible growth after 72 hours at 35° C, read-out: MIC): 2 µg/mL; MIC ([14]; fungus G, no visible growth after 72 hours at 35° C, read-out: MIC): 0.75 µg/mL; MIC ([15]; fungus F, no visible growth after 72 hours at 35° C, read-out: MIC): 1.5 µg/mL
